# Source: ChEMBL document CHEMBL1141593, “Acylpyrogallols as inhibitors of antiapoptotic Bcl-2 proteins” (J Med Chem, 2008)
# How the values were obtained:
# MDA-MB-231 [1] = test: Induction of apoptosis in human MDA-MB-231 2LMP cells assessed as cell death at 0.3 uM after 4 days by trypan blue exclusion assay; settings: MDA-MB-231, 96 h
# MDA-MB-231 [2] = test: Induction of apoptosis in human MDA-MB-231 2LMP cells assessed as cell death at 3 uM after 4 days by trypan blue exclusion assay; settings: MDA-MB-231, 96 h
structure (smiles),measurement,setting,value
O=C(c1ccc(Oc2ccccc2)cc1)c1cc(C(=O)c2nc3ccccc3s2)c(O)c(O)c1O,cell death at 0.3 µM,MDA-MB-231 [1],31%
same,cell death at 3 µM,MDA-MB-231 [2],86%
